Tests used:
Assay in all cases: cells
COLO-792 = format: functional, cell-based, Homo sapiens; details: Homo sapiens, COLO-792
Description: SANGER: Inhibition of human COLO-792 cell growth in a cell viability assay.

CTB-1 = format: functional, cell-based; details: Homo sapiens
Description: SANGER: Inhibition of human CTB-1 cell growth in a cell viability assay.

DMS-114 = format: functional, cell-based, Homo sapiens; details: Homo sapiens, DMS-114
DOK = format: functional, cell-based, Homo sapiens; details: Homo sapiens, DOK;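 also: cell viability assay read-out, values reflect inhibition of cell growth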
Description: SANGER: Inhibition of human DOK cell growth in a cell viability assay.

DSH1 = format: functional, cell-based, Homo sapiens; details: Homo sapiens, DSH1;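 also: growth inhibition of human DSH1 cells, measured with a cell viability readout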
Description: SANGER: Inhibition of human DSH1 cell growth in a cell viability assay.

ES3 = format: functional, cell-based, Homo sapiens; details: Homo sapiens, ES3;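 also: growth inhibition of ES3 cells, read out with a cell viability assay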
ES4 = format: functional, cell-based, Homo sapiens; details: Homo sapiens, ES4;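 also: growth inhibition of human ES4 cells, read out by a cell viability assay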
Description: SANGER: Inhibition of human ES4 cell growth in a cell viability assay.

H4 = format: functional, cell-based; details: Homo sapiens
Description: SANGER: Inhibition of human H4 cell growth in a cell viability assay.

HCC1419 = format: functional, cell-based, Homo sapiens; details: Homo sapiens, HCC1419;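 also: growth inhibition of human HCC1419 cells, read out as cell viability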
Description: SANGER: Inhibition of human HCC1419 cell growth in a cell viability assay.

HEC-1 = format: functional, cell-based, Homo sapiens; details: Homo sapiens, HEC-1;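 also: growth inhibition of the cell line, read out with a cell viability assay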
Description: SANGER: Inhibition of human HEC-1 cell growth in a cell viability assay.

HOP-62 = format: functional, cell-based, Homo sapiens; details: Homo sapiens, HOP-62;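 also: cell growth inhibition determined with a viability assay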
Description: SANGER: Inhibition of human HOP-62 cell growth in a cell viability assay.

HT1197 = format: functional, cell-based, Homo sapiens, HT-1197; details: Homo sapiens, HT1197
Description: SANGER: Inhibition of human HT-1197 cell growth in a cell viability assay.

Hs-578T = format: functional, cell-based, Homo sapiens; details: Homo sapiens, Hs-578T
Description: SANGER: Inhibition of human Hs-578-T cell growth in a cell viability assay.

HuO-3N1 = format: functional, cell-based, Homo sapiens; details: Homo sapiens, HuO-3N1;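 also: cell viability readout used to measure how strongly compounds suppress proliferation of human HuO-3N1 cells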
Description: SANGER: Inhibition of human HuO-3N1 cell growth in a cell viability assay.

JAR = format: functional, cell-based, Homo sapiens; details: Homo sapiens, JAR;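 also: growth inhibition of human JAR cells determined with a cell viability assay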
Description: SANGER: Inhibition of human JAR cell growth in a cell viability assay.

KM-H2 = format: functional, cell-based; details: Homo sapiens;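 also: growth inhibition of KM-H2 cells, read out by a cell viability assay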
Description: SANGER: Inhibition of human KM-H2 cell growth in a cell viability assay.

KYSE-140 = format: functional, cell-based, Homo sapiens; details: Homo sapiens, KYSE-140;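 also: cell viability assay measuring growth inhibition in human KYSE-140 cells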
Description: SANGER: Inhibition of human KYSE-140 cell growth in a cell viability assay.

KYSE-150 cell line = format: functional, cell-based, Homo sapiens; details: Homo sapiens, KYSE-150;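 also: growth inhibition of human KYSE-150 cells, read out with a cell viability assay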
Description: SANGER: Inhibition of human KYSE-150 cell growth in a cell viability assay.

KYSE-450 = format: functional, cell-based; details: Homo sapiens;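 also: cell growth inhibition measured by a viability assay in human KYSE-450 cells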
Description: SANGER: Inhibition of human KYSE-450 cell growth in a cell viability assay.

LCLC-103H cell line = format: functional, cell-based, Homo sapiens; details: Homo sapiens, LCLC-103H
Description: SANGER: Inhibition of human LCLC-103H cell growth in a cell viability assay.

LS-123 = format: functional, cell-based, Homo sapiens; details: Homo sapiens, LS-123
MDA-MB-231 = format: functional, cell-based, Homo sapiens; details: Homo sapiens, MDA-MB-231
Description: SANGER: Inhibition of human MDA-MB-231 cell growth in a cell viability assay.

MFH-ino = format: functional, cell-based; details: Homo sapiens;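 also: growth inhibition of human MFH-ino cells, read out by a cell viability assay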
Description: SANGER: Inhibition of human MFH-ino cell growth in a cell viability assay.

MSTO-211H = format: functional, cell-based, Homo sapiens; details: Homo sapiens, MSTO-211H
Description: SANGER: Inhibition of human MSTO-211H cell growth in a cell viability assay.

NCI-H1793 = format: functional, cell-based, Homo sapiens; details: Homo sapiens, NCI-H1793;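 also: cell growth inhibition, read out by a cell viability assay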
Description: SANGER: Inhibition of human NCI-H1793 cell growth in a cell viability assay.

NCI-H2030 = format: functional, cell-based, Homo sapiens; details: Homo sapiens, NCI-H2030;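 also: growth inhibition of human NCI-H2030 cells, read out by a cell viability assay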
Description: SANGER: Inhibition of human NCI-H2030 cell growth in a cell viability assay.

NCI-H2170 = format: functional, cell-based, Homo sapiens; details: Homo sapiens, NCI-H2170;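 also: cell viability assay measuring growth inhibition of human NCI-H2170 cancer cells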
NCI-H2228 = format: functional, cell-based, Homo sapiens; details: Homo sapiens, NCI-H2228;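 also: growth inhibition of human NCI-H2228 cells, read out by a cell viability assay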
Description: SANGER: Inhibition of human NCI-H2228 cell growth in a cell viability assay.

NOMO-1 = format: functional, cell-based; details: Homo sapiens;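 also: growth inhibition of human NOMO-1 cells measured by a cell viability assay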
Description: SANGER: Inhibition of human NOMO-1 cell growth in a cell viability assay.

NOS-1 = format: functional, cell-based, Homo sapiens; details: Homo sapiens, NOS-1;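 also: growth inhibition of the human NOS-1 cell line, read out with a cell viability assay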
Description: SANGER: Inhibition of human NOS-1 cell growth in a cell viability assay.

OVCAR-4 = format: functional, cell-based, Homo sapiens; details: Homo sapiens, OVCAR-4;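 also: growth inhibition of human OVCAR-4 cells, measured with a cell viability assay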
Description: SANGER: Inhibition of human OVCAR-4 cell growth in a cell viability assay.

OVCAR-8 = format: functional, cell-based, Homo sapiens; details: Homo sapiens, OVCAR-8;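 also: growth inhibition of human OVCAR-8 cells, read out by a cell viability assay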
Description: SANGER: Inhibition of human OVCAR-8 cell growth in a cell viability assay.

PANC-08-13 = format: functional, cell-based, Homo sapiens; details: Homo sapiens, PANC-08-13;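 also: cell growth inhibition, measured with a cell viability assay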
Description: SANGER: Inhibition of human PANC-08-13 cell growth in a cell viability assay.

Panc1005 = format: functional, cell-based, Homo sapiens; details: Homo sapiens, Panc1005;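 also: growth inhibition of human PANC-10-05 cells, measured by a cell viability assay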
Description: SANGER: Inhibition of human PANC-10-05 cell growth in a cell viability assay.

RCC10RGB = format: functional, cell-based, Homo sapiens; details: Homo sapiens, RCC10RGB;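 also: growth inhibition of human RCC10RGB cells, read out by a cell viability assay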
Description: SANGER: Inhibition of human RCC10RGB cell growth in a cell viability assay.

RT-112 = format: functional, cell-based, Homo sapiens; details: Homo sapiens, RT-112
SF-268 = format: functional, cell-based, Homo sapiens; details: Homo sapiens, SF-268;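 also: growth inhibition of SF-268 cells determined with a cell viability assay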
Description: SANGER: Inhibition of human SF268 cell growth in a cell viability assay.

SK-MEL-2 = format: functional, cell-based, Homo sapiens; details: Homo sapiens, SK-MEL-2
Description: SANGER: Inhibition of human SK-MEL-2 cell growth in a cell viability assay.

SK-MEL-28 = format: functional, cell-based; details: Homo sapiens;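 also: growth inhibition of human SK-MEL-28 cells, read out with a cell viability assay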
Description: SANGER: Inhibition of human SK-MEL-28 cell growth in a cell viability assay.

SKG-IIIa = format: functional, cell-based, Homo sapiens; details: Homo sapiens, SKG-IIIa;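 also: cell growth inhibition, read out with a cell viability assay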
Description: SANGER: Inhibition of human SKG-IIIa cell growth in a cell viability assay.

SW48 = format: functional, cell-based, Homo sapiens; details: Homo sapiens, SW48;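 also: growth inhibition of SW48 cells, read out with a cell viability assay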
Description: SANGER: Inhibition of human SW48 cell growth in a cell viability assay.

A2780 = format: functional, cell-based, Homo sapiens; details: Homo sapiens, A2780;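 also: growth inhibition of A2780 cells, read out with a cell viability assay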
Description: SANGER: Inhibition of human A2780 cell growth in a cell viability assay.

AM-38 = format: functional, cell-based, Homo sapiens; details: Homo sapiens, AM-38;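 also: growth inhibition of AM-38 cells of human origin, read out by a cell viability assay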
Description: SANGER: Inhibition of human AM-38 cell growth in a cell viability assay.

AU565 = format: functional, cell-based, Homo sapiens; details: Homo sapiens, AU565;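 also: cell viability assay measuring growth inhibition of human AU565 cells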
Description: SANGER: Inhibition of human AU565 cell growth in a cell viability assay.

BFTC-905 = format: functional, cell-based, Homo sapiens; details: Homo sapiens, BFTC-905
Description: SANGER: Inhibition of human BFTC-905 cell growth in a cell viability assay.

BXPC-3 = format: functional, cell-based, Homo sapiens; details: Homo sapiens, BXPC-3;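 also: growth inhibition of human BxPC-3 cells, read out by a cell viability assay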
Description: SANGER: Inhibition of human BxPC-3 cell growth in a cell viability assay.

CAL-72 = format: functional, cell-based, Homo sapiens; details: Homo sapiens, CAL-72;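 also: cell viability assay measuring inhibition of proliferation in the CAL-72 cell line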
Description: SANGER: Inhibition of human CAL-72 cell growth in a cell viability assay.

CAPAN-1 = format: functional, cell-based, Homo sapiens; details: Homo sapiens, CAPAN-1;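 also: growth suppression of CAPAN-1 cells, read out by a cell viability assay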
Description: SANGER: Inhibition of human CAPAN-1 cell growth in a cell viability assay.

COLO-680N = format: functional, cell-based, Homo sapiens; details: Homo sapiens, COLO-680N;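 also: cell viability assay used to measure inhibition of COLO-680N cell growth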
Description: SANGER: Inhibition of human COLO-680N cell growth in a cell viability assay.

CN(C)C/C=C/C(=O)Nc1cc2c(Nc3ccc(F)c(Cl)c3)ncnc2cc1O[C@H]1CCOC1 [AFATINIB]
IC50 (COLO-792): > 500 nM
IC50 (CTB-1): > 500 nM
IC50 (DMS-114): > 500 nM
IC50 (DOK): 31.9 nM
IC50 (DSH1): 33.1 nM
IC50 (ES3): > 500 nM
IC50 (ES4): > 500 nM
IC50 (H4): > 500 nM
IC50 (HCC1419): 364 nM
IC50 (HEC-1): > 500 nM
IC50 (HOP-62): > 500 nM
IC50 (HT1197): > 500 nM
IC50 (Hs-578T): > 500 nM
IC50 (HuO-3N1): > 500 nM
IC50 (JAR): > 500 nM
IC50 (KM-H2): > 500 nM
IC50 (KYSE-140): 83.3 nM
IC50 (KYSE-150 cell line): > 500 nM
IC50 (KYSE-450): 59.8 nM
IC50 (LCLC-103H cell line): > 500 nM
IC50 (LS-123): > 500 nM
IC50 (MDA-MB-231): > 500 nM
IC50 (MFH-ino): > 500 nM
IC50 (MSTO-211H): > 500 nM
IC50 (NCI-H1793): > 500 nM
IC50 (NCI-H2030): > 500 nM
IC50 (NCI-H2170): 37.3 nM
IC50 (NCI-H2228): > 500 nM
IC50 (NOMO-1): > 500 nM
IC50 (NOS-1): > 500 nM
IC50 (OVCAR-4): > 500 nM
IC50 (OVCAR-8): > 500 nM
IC50 (PANC-08-13): > 500 nM
IC50 (Panc1005): > 500 nM
IC50 (RCC10RGB): > 500 nM
IC50 (RT-112): > 500 nM
IC50 (SF-268): > 500 nM
IC50 (SK-MEL-2): > 500 nM
IC50 (SK-MEL-28): > 500 nM
IC50 (SKG-IIIa): > 500 nM
IC50 (SW48): > 500 nM
IC50 (A2780): > 500 nM
IC50 (AM-38): > 500 nM
IC50 (AU565): 85 nM
IC50 (BFTC-905): > 500 nM
IC50 (BXPC-3): > 500 nM
IC50 (CAL-72): > 500 nM
IC50 (CAPAN-1): > 500 nM
IC50 (COLO-680N): > 500 nM

CC(=O)O[C@@]12CO[C@@H]1C[C@H](O)[C@@]1(C)C(=O)[C@H](O)C3=C(C)[C@@H](OC(=O)[C@H](O)[C@@H](NC(=O)OC(C)(C)C)c4ccccc4)C[C@@](O)([C@@H](OC(=O)c4ccccc4)[C@H]21)C3(C)C [DOCETAXEL]
IC50 (COLO-792): > 10 nM
IC50 (CTB-1): 1.92 nM
IC50 (DMS-114): 6.96 nM
IC50 (DOK): 2.94 nM
IC50 (DSH1): > 10 nM
IC50 (ES3): 2.77 nM
IC50 (ES4): 1.55 nM
IC50 (H4): 1.96 nM
IC50 (HCC1419): > 10 nM
IC50 (HEC-1): 3.03 nM
IC50 (HOP-62): > 10 nM
IC50 (HT1197): > 10 nM
IC50 (Hs-578T): 2.72 nM
IC50 (HuO-3N1): 0.302 nM
IC50 (JAR): 4.37 nM
IC50 (KM-H2): > 10 nM
IC50 (KYSE-140): 0.933 nM
IC50 (KYSE-150 cell line): 4.99 nM
IC50 (KYSE-450): 1.43 nM
IC50 (LCLC-103H cell line): 2.93 nM
IC50 (LS-123): 4.25 nM
IC50 (MDA-MB-231): 7.3 nM
IC50 (MFH-ino): > 10 nM
IC50 (MSTO-211H): > 10 nM
IC50 (NCI-H1793): > 10 nM
IC50 (NCI-H2030): > 10 nM
IC50 (NCI-H2170): 5.35 nM
IC50 (NCI-H2228): 7.25 nM
IC50 (NOMO-1): 5.13 nM
IC50 (NOS-1): > 10 nM
IC50 (OVCAR-4): 5.86 nM
IC50 (OVCAR-8): 2.12 nM
IC50 (PANC-08-13): > 10 nM
IC50 (Panc1005): > 10 nM
IC50 (RCC10RGB): > 10 nM
IC50 (RT-112): 1.19 nM
IC50 (SF-268): 1.21 nM
IC50 (SK-MEL-2): 1.7 nM
IC50 (SK-MEL-28): 2.03 nM
IC50 (SKG-IIIa): 2.86 nM
IC50 (SW48): 1.01 nM
IC50 (A2780): 3.35 nM
IC50 (AM-38): > 10 nM
IC50 (AU565): 1.81 nM
IC50 (BFTC-905): 0.268 nM
IC50 (BXPC-3): 2.51 nM
IC50 (CAL-72): > 10 nM
IC50 (CAPAN-1): > 10 nM
IC50 (COLO-680N): 5.08 nM

Source: ChEMBL document CHEMBL1201861, “Genomics of Drug Sensitity in Cancer screening data, Wellcome Trust Sanger Institute”
